Measurements reported in US20170119775A1, “TREATMENT OF COGNITIVE DISORDERS” (Algiax Pharmaceuticals GmbH, priority 2014, published 2017).

Legend:
[1] = Plasma Tmax after oral administration; format: in vivo
male Wistar rats [2] = assay: Xylazine/ketamine-induced anesthesia test (surrogate measure of emesis); format: in vivo, rat; conditions: for relative recovery time (duration of anesthesia, vehicle set at 100%), mean: 3.5 h before induction of anesthesia
Source text: The mechanism of the emetic response associated with PDE4-Is is thought to be a consequence of the inhibition of PDE4 in non-target tissues. It is believed that PDE4-Is produce a pharmacological response analogous to that of presynaptic α2-adrenoreceptor inhibition by elevating intracellular levels of cAMP in noradrenergic neurons. Therefore, by removing an inhibitory mechanism, PDE4-Is are thought to modulate the release of mediators including 5-HT, substance P and noradrenaline involved in the onset of the emetic reflex mediated at emetic brainstem centers. PDE4-Is have the ability to reverse α2-adrenoreceptor agonist-mediated anesthesia with xylazine/ketamine in rodents (Robichaud et al., 2002). This effect is very likely mediated at the locus coeruleus in the brain stem. This confirms the postulate that PDE4-Is have effects similar to those of a2-adrenoreceptor antagonists. Since rodents are non-vomiting species, the ability of a PDE4-I to shorten a2-adrenergic receptor-mediated xylazine/ketamine anesthesia is therefore used as well-established surrogate measure of emesis in rodents.
(§1) Twenty four 3-4 month old male Wistar rats (Charles River, Sulzfeld, Germany) were used (average body weight at the beginning of the study: 365 g). All animals were housed individually in standard green line Tecniplast IVC cages on sawdust bedding. The animals were housed on a reversed 12/12-h light/dark cycle (lights on from 19:00 h to 07:00 h) and had free access to food and water. The rats were housed and tested in the same room. A radio, playing softly, provided background noise in the room. All testing was performed between 09:00 h and 18:00 h.
AP-61 was dissolved in 0.5% methylcellulose (MC) and 2% Tween 80. […] (injection volume was 2 ml/kg). […] The emetic properties of the PDE4-I rolipram are already assessed (Bruno et al., 2011). In the current study rolipram was used as a reference compound for AP-61 and applied in at dosages of 0.1 and 0.3 mg/kg. Rolipram was dissolved in 0.5% MC and 2% tween 80 (injection volume 2 ml/kg, route of administration was p.o.). For the induction of anesthesia, 10 mg/kg ketamine (Eurovet Animal Health, The Netherlands) and 10 mg/kg xylazine (CEVA Santé Animale, The Netherlands) were used (both administered i.p.). All solutions were prepared daily.
Rats were anesthetized with a combination of xylazine and ketamine (both 10 mg/kg, i.p). Fifteen minutes after induction of the anesthesia, rats were treated with rolipram or vehicle (0.1 or 0.3 mg/kg, p.o.) and the animals were placed in a dorsal position. The restoration of the righting reflex, i.e. when the animal no longer remained on its back and turned itself spontaneously to the prone position, was used as an endpoint to determine the duration of anesthesia. Animals that were not anesthetized after 15 min were excluded from the analysis.
AP-61 reached peak concentration at 5 h after oral administration. Because of this, induction of anesthesia with the combination of xylazine and ketamine was done 3.5 h after oral administration of AP-61. Animals were then placed in a dorsal position. The time delay to the recovery of the righting reflex was used as an endpoint to measure the duration of the anesthesia. Again, animals that were not anesthetized after 15 min were excluded from the analysis.
The restoration of the righting reflex, i.e. when the animal no longer remained on its back and turned itself spontaneously to the prone position (standing on four paws), was used as an endpoint to determine the duration to the anesthesia. Each test day a vehicle group was included. Outliers were removed from the analysis (Dixon-test). Each daily vehicle was set at 100% while the other treatment conditions of that day were expressed as a percentage of the vehicle. The following formula was used:
Duration of anesthesia after drug treatment (min)×(100/mean of duration of anesthesia of vehicle treatment (min)) […]

male Wistar rats [3] = assay: Object recognition task (ORT), natural forgetting, 24-h interval; format: in vivo, rat; conditions: 24 h delay, mean (SEM)
Description: In example 1, the compound AP-61 a 7-(4-tert butyl-cyclohexyl)-imidazotriazione (a compound of the formula II) was tested in the ORT in 3-4 month old male Wistar rats using a 24-h interval between the trials to induce natural forgetting.
as §1, with “One group of twenty” for “Twenty”
AP-61 was dissolved in 0.5% methylcellulose (MC) and 2% Tween 80. The solutions were prepared daily. Doses of 0.01, 0.03 and 0.1 mg/kg of AP-61 or vehicle were administered p.o. (injection volume was 2 ml/kg), immediately after T1. […]
A testing session comprised two trials, each with durations of 3 min. […] The times spent in exploring each object during T1 and T2 were recorded manually with a personal computer. […]
The measures were the times spent by rats in exploring each object during T1 and T2. […] From these exploration times the following variables were calculated: e1, e2 and d2 (Table 1). […]

Row | Structure (SMILES) | Tmax [1] | relative recovery time (duration of anesthesia, vehicle set at 100%), mean (male Wistar rats [2]; AP61 0.03 mg/kg p.o.) | relative recovery time (duration of anesthesia, vehicle set at 100%), mean (male Wistar rats [2]; AP61 0.1 mg/kg p.o.) | relative recovery time (duration of anesthesia, vehicle set at 100%), mean (male Wistar rats [2]; AP61 3.0 mg/kg p.o.) | effect on duration of xylazine/ketamine-induced anesthesia compared with vehicle (summary) (male Wistar rats [2]; AP-61 0.03-3.0 mg/kg p.o., all doses) | emetic properties / gastrointestinal toxicity (conclusion) (male Wistar rats [2]; AP-61, all doses tested, within the effective dose range) | d2, discrimination index between the new and familiar objects for T2 (male Wistar rats [3]; AP61 0.01 mg/kg p.o. immediately after T1) | d2, discrimination index between the new and familiar objects for T2 (male Wistar rats [3]; AP61 0.1 mg/kg p.o. immediately after T1) | effect on duration of the xylazine/ketamine-induced anesthesia (summary) (male Wistar rats [2]; oral rolipram, 2 mg/kg, 15 min after induction of anesthesia (so in the source))
1 | CCc1nc(C2CCC(C(C)(C)C)CC2)n2nc(-c3ccccc3)[nH]c(=O)c12 (stereo not drawn) [AP61, 7-(4-tert-butylcyclohexyl)-5-ethyl-2-phenylimidazo[5,1-f][1,2,4]triazin-4(3H)-one] | 5 h | 97.16% | 107.16% | 108.37% | none of the doses led to a shortened duration | does not show any signs of gastrointestinal toxicity | 0.10 (0.09) | 0.01 (0.08) | 
2 | COc1ccc(C2CNC(=O)C2)cc1OC1CCCC1 (stereo not drawn) [rolipram, reference compound] |  |  |  |  |  |  |  |  | significant reduction
